Experimental data reported in patent US20250171431A1, “HETEROCYCLIC INHIBITORS OF IGF-1R FOR TREATMENT OF DISEASE” (HORIZON THERAPEUTICS IRELAND DAC, priority 2023, published 2025).

Target: IGF-1R (Homo sapiens (Human), UniProt P08069)
Test: Example B-1: IGF-1R Assay (PC3 cells, IGF1 stimulation, AlphaLISA)
Format: cell-based
Settings: 200 ng/mL IGF1 stimulation, read-out: Biological Activity against IGF-1R IC50
Outline: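 PC3 cells were serum-starved 2 h, treated with serially diluted compounds for 2 h, then stimulated with IGF1 (200 ng/mL final) for 30 min. Lysates were read by AlphaLISA; % inhibition was calculated relative to vehicle and EC80 controls, with IC50 values binned into ranges.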

Chain of IGF-1R (P08069 31-1367): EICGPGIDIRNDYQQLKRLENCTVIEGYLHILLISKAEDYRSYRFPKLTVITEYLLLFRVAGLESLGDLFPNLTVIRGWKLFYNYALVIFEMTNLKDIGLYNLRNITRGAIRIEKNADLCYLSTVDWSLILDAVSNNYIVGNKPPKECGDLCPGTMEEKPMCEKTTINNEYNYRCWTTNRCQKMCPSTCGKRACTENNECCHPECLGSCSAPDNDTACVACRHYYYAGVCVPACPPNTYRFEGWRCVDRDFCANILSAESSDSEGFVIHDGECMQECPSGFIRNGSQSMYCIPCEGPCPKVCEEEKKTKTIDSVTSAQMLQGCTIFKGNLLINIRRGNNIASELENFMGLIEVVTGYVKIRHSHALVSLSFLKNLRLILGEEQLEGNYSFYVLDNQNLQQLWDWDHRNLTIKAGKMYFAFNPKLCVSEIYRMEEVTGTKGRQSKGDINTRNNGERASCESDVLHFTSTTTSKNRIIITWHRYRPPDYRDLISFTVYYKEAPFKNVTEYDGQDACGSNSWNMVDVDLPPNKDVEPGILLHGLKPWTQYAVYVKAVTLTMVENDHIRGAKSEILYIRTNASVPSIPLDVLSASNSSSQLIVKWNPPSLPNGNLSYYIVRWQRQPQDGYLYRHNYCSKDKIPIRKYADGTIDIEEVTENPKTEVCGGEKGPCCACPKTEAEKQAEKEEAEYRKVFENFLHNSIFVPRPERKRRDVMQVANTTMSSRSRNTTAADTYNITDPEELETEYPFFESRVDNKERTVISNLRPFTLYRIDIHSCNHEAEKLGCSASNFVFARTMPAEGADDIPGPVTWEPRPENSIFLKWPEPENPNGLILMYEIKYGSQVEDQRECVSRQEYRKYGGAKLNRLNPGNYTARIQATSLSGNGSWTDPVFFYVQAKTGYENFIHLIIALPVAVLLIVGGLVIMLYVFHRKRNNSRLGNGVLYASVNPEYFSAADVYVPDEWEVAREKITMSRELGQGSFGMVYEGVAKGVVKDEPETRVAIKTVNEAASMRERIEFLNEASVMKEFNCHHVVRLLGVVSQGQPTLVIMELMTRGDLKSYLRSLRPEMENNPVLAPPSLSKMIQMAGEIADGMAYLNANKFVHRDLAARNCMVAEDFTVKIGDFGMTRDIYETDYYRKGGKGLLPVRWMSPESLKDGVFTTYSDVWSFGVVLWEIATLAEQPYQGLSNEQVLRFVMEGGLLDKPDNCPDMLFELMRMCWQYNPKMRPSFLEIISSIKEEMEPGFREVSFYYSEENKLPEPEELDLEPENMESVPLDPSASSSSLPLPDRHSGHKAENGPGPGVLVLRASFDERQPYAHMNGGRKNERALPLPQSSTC

Structure (SMILES) | IC50
COc1cc(Nc2nccc(Nc3cnc4ccc(C(F)F)cc4c3)n2)cnc1O[C@H]1C[C@@H](N(C)C)C1 [Compound 163, 4-[6-(difluoromethyl)-3-quinolylamino]-2-{5-methoxy-6-[(1s,3s)-3-(dimethylamino)cyclobutoxy]-3-pyridylamino}pyrimidine] | ≤ 0.5 µM
COc1cc(Nc2nccc(Nc3ccc4ccc(Cl)nc4n3)n2)ccc1O[C@H]1C[C@@H](N(C)C)C1 [Compound 168, N4-(7-chloro-1,8-naphthyridin-2-yl)-N2-(4-((1s,3s)-3-(dimethylamino)cyclobutoxy)-3-methoxyphenyl)pyrimidine-2,4-diamine] | ≤ 0.5 µM
COc1cc(Nc2nccc(Nc3cc4ccccc4nc3C(N)=O)n2)cnc1O[C@H]1C[C@@H](N(C)C)C1 [Compound 172, 3-((2-((6-((1s,3s)-3-(dimethylamino)cyclobutoxy)-5-methoxypyridin-3-yl)amino)pyrimidin-4-yl)amino)quinoline-2-carboxamide] | ≤ 0.5 µM
COc1cc(Nc2ncc(F)c(Nc3cnc4cc(F)c(F)cc4c3)n2)ccc1O[C@H]1C[C@@H](N(C)C)C1 [Compound 173, N4-(6,7-difluoroquinolin-3-yl)-N2-(4-((1s,3s)-3-(dimethylamino)cyclobutoxy)-3-methoxyphenyl)-5-fluoropyrimidine-2,4-diamine] | ≤ 0.5 µM
COc1cc(Nc2nccc(Nc3cnc4c(c3)OCC(CN(C)C)O4)n2)ccc1O[C@H]1C[C@@H](N(C)C)C1 (stereo partly shown) [Compound 179, 4-{3-[(dimethylamino)methyl]-2,3-dihydro-1,4-dioxa-5-aza-7-naphthylamino}-2-{3-methoxy-4-[(1s,3s)-3-(dimethylamino)cyclobutoxy]phenylamino}pyrimidine] | ≤ 0.5 µM
COc1cc(Nc2nccc(Nc3cnc(O[C@H]4CCCC[C@H]4O)c(F)c3)n2)ccc1O[C@H]1C[C@@H](N(C)C)C1 [Compound 180, (1R,2S)-2-[3-fluoro-5-(2-{3-methoxy-4-[(1s,3R)-3-(dimethylamino)cyclobutoxy]phenylamino}-4-pyrimidinylamino)-2-pyridyloxy]cyclohexanol] | ≤ 0.5 µM
COc1cc(Nc2nccc(Nc3cnc4c(c3)O[C@@H]3CCCC[C@@H]3O4)n2)ccc1O[C@H]1C[C@@H](N(C)C)C1 [Compound 190, 4-[(8aS,10aR)-5,6,7,8,8a, 10a-hexahydro-9,10-dioxa-1-aza-3-anthrylamino]-2-{3-methoxy-4-[(1s,3S)-3-(dimethylamino)cyclobutoxy]phenylamino}pyrimidine] | ≤ 0.5 µM
COc1cc(Nc2nccc(Nc3cnc4c(c3)O[C@H]3CCCC[C@@H]3O4)n2)ccc1O[C@H]1C[C@@H](N(C)C)C1 [Compound 191, 4-[(8aS,10aS)-5,6,7,8,8a,10a-hexahydro-9,10-dioxa-1-aza-3-anthrylamino]-2-{3-methoxy-4-[(1s,3R)-3-(dimethylamino)cyclobutoxy]phenylamino}pyrimidine] | ≤ 0.5 µM
COc1cc(Nc2nccc(Nc3cnc4c(c3)O[C@H]3CCC[C@@H]3O4)n2)ccc1O[C@H]1C[C@@H](N(C)C)C1 [Compound 192, 4-{(3S,7S)-2,8-dioxa-10-azatricyclo[7.4.0.03,7]trideca-1(13),9,11-trien-12-ylamino}-2-{3-methoxy-4-[(1s,3R)-3-(dimethylamino)cyclobutoxy]phenylamino}pyrimidine] | ≤ 0.5 µM
COc1cc(Nc2ncc(F)c(Nc3cc4ccccc4nc3C(N)=O)n2)ccc1O[C@H]1C[C@@H](N(C)C)C1 [Compound 193, 3-(5-fluoro-2-{3-methoxy-4-[(1s,3s)-3-(dimethylamino)cyclobutoxy]phenylamino}-4-pyrimidinylamino)-2-quinolinecarboxamide] | ≤ 0.5 µM
COc1cc(Nc2nccc(Nc3cc(Cl)cnc3C(N)=O)n2)ccc1O[C@H]1C[C@@H](N(C)C)C1 [Compound 198, 5-chloro-3-(2-{3-methoxy-4-[(1s,3s)-3-(dimethylamino)cyclobutoxy]phenylamino}-4-pyrimidinylamino)-2-pyridinecarboxamide] | ≤ 0.5 µM
COc1cc(Nc2nccc(Nc3cnc4ccc(Br)cc4c3)n2)ccc1O[C@H]1C[C@H](N(C)C)C1 [Compound 199, 4-(6-bromo-3-quinolylamino)-2-{3-methoxy-4-[(1r,3r)-3-(dimethylamino)cyclobutoxy]phenylamino}pyrimidine] | ≤ 0.5 µM
COc1cc(Nc2nccc(Nc3cnc4c(c3)CCCCC4)n2)ccc1O[C@H]1C[C@@H](N(C)C)C1 [Compound 202, 4-{8-azabicyclo[5.4.0]undeca-1(7),8,10-trien-10-ylamino}-2-{3-methoxy-4-[(1s,3s)-3-(dimethylamino)cyclobutoxy]phenylamino}pyrimidine] | ≤ 0.5 µM
COc1cc(Nc2nccc(Nc3cnc4[nH]cc(Br)c4c3)n2)ccc1O[C@H]1C[C@@H](N(C)C)C1 [Compound 203, 4-(3-bromo-1H-1,7-diazainden-5-ylamino)-2-{3-methoxy-4-[(1s,3s)-3-(dimethylamino)cyclobutoxy]phenylamino}pyrimidine] | ≤ 0.5 µM

Next, values leading:

IC50 | Structure (SMILES)
0.5 to 2 µM | COc1cc(Nc2nccc(Nc3cnc4cc(F)c(F)cc4c3)n2)cnc1N1CCOC(C)(C)C1 [Compound 157, N4-(6,7-difluoroquinolin-3-yl)-N2-(6-(2,2-dimethylmorpholino)-5-methoxypyridin-3-yl)pyrimidine-2,4-diamine]
0.5 to 2 µM | COc1cc(Nc2nccc(Nc3cnc4cc(F)c(F)cc4c3)n2)cnc1N1CCS(=N)(=O)CC1 [Compound 158, 4-(5-((4-((6,7-difluoroquinolin-3-yl)amino)pyrimidin-2-yl)amino)-3-methoxypyridin-2-yl)-1-imino-116-thiomorpholine 1-oxide]
≤ 0.5 µM | COc1cc(Nc2nccc(Nc3cc4cccc(F)c4[nH]c3=O)n2)cnc1N1CCOC(C)(C)C1 [Compound 160, 3-((2-((6-(2,2-dimethylmorpholino)-5-methoxypyridin-3-yl)amino)pyrimidin-4-yl)amino)-8-fluoroquinolin-2(1H)-one]
0.5 to 2 µM | COc1cc(Nc2nccc(Nc3cnc4cc(F)c(F)cc4c3)n2)cnc1N1CCS(=O)(=O)CC1 [Compound 161, 4-(5-((4-((6,7-difluoroquinolin-3-yl)amino)pyrimidin-2-yl)amino)-3-methoxypyridin-2-yl)thiomorpholine 1,1-dioxide]
0.5 to 2 µM | COc1cc(Nc2nccc(Nc3cc4cccc(F)c4[nH]c3=O)n2)cnc1O[C@@H]1CCN(C)C1 [Compound 165, 3-(2-{6-[(R)-1-methyl-3-pyrrolidinyloxy]-5-methoxy-3-pyridylamino}-4-pyrimidinylamino)-8-fluoro-1,2-dihydro-2-quinolinone]
0.5 to 2 µM | COc1cc(Nc2nccc(Nc3cc4cccc(F)c4[nH]c3=O)n2)cnc1O[C@H]1CCN(C)C1 [Compound 166, 3-(2-{6-[(S)-1-methyl-3-pyrrolidinyloxy]-5-methoxy-3-pyridylamino}-4-pyrimidinylamino)-8-fluoro-1,2-dihydro-2-quinolinone]
≤ 0.5 µM | COc1cc(Nc2nccc(Nc3cc4cccc(F)c4[nH]c3=O)n2)cnc1OC1CC2(C1)CN(C)C2 [Compound 167, 8-fluoro-3-(2-{5-methoxy-6-(2-methyl-2-aza-6-spiro[3.3]heptyloxy)-3-pyridylamino}-4-pyrimidinylamino)-1,2-dihydro-2-quinolinone]
0.5 to 2 µM | COc1cc(Nc2nccc(Nc3cc4cccc(F)c4[nH]c3=O)n2)cnc1N1CCN(C)C(C(F)(F)F)C1 (stereo not shown) [Compound 174, 8-fluoro-3-((2-((5-methoxy-6-(4-methyl-3-(trifluoromethyl)piperazin-1-yl)pyridin-3-yl)amino)pyrimidin-4-yl)amino)quinolin-2(1H)-one]
≤ 0.5 µM | COc1cc(Nc2nccc(Nc3cc4cccc(F)c4[nH]c3=O)n2)ccc1N1CCN(C)C(C)(C)C1 [Compound 175, 8-fluoro-3-((2-((3-methoxy-4-(3,3,4-trimethylpiperazin-1-yl)phenyl)amino)pyrimidin-4-yl)amino)quinolin-2(1H)-one]
≤ 0.5 µM | COc1cc(Nc2nccc(Nc3cnc4cc(F)c(F)cc4c3)n2)cnc1N1CCNC(C(F)(F)F)C1 (stereo not shown) [Compound 176, N4-(6,7-difluoroquinolin-3-yl)-N2-(5-methoxy-6-(3-(trifluoromethyl)piperazin-1-yl)pyridin-3-yl)pyrimidine-2,4-diamine]
≤ 0.5 µM | COc1cc(Nc2nccc(Nc3cnc4c(c3)CCC4)n2)ccc1OCCCN1CCCCC1 [Compound 194, 4-(4-aza-6-indanylamino)-2-[3-methoxy-4-(3-piperidinopropoxy)phenylamino] pyrimidine]
≤ 0.5 µM | COc1cc(Nc2nccc(Nc3cc4cccc(F)c4[nH]c3=O)n2)cnc1N1CCN(C)CC1 [Compound 197, 8-fluoro-3-{2-[5-methoxy-6-(4-methyl-1-piperazinyl)-3-pyridylamino]-4-pyrimidinylamino}-1,2-dihydro-2-quinolinone]
≤ 0.5 µM | COc1cc(Nc2nccc(Nc3cnc4c(c3)OCCO4)n2)ccc1OCCCN1CCCCC1 [Compound 201, 4-(2,3-dihydro-1,4-dioxa-5-aza-7-naphthylamino)-2-[3-methoxy-4-(3-piperidinopropoxy)phenylamino]pyrimidine]
≤ 0.5 µM | CN(C)CC1COc2cc(Nc3nccc(Nc4cc5cccc(F)c5[nH]c4=O)n3)ccc2O1 (stereo not shown) [Compound 205, 3-(2-{2-[(dimethylamino)methyl]-2,3-dihydro-1,4-benzodioxin-6-ylamino}-4-pyrimidinylamino)-8-fluoro-1,2-dihydro-2-quinolinone]
≤ 0.5 µM | O=S1(=O)CCN(CCCOc2ccc(Nc3nccc(Nc4cnc5ccc(Br)cc5c4)n3)cc2)CC1 [Compound 206, 4-(3-{p-[4-(6-bromo-3-quinolylamino)-2-pyrimidinylamino]phenoxy}propyl)-1λ^6,4-thiazinane-1,1-dione]
≤ 0.5 µM | CN(C)CCOc1cc(Nc2nccc(Nc3cnc4ccccc4c3)n2)ccc1N1CCOCC1 [Compound 207, 2-{3-[2-(dimethylamino)ethoxy]-4-morpholinophenylamino}-4-(3-quinolylamino)pyrimidine]
≤ 0.5 µM | COc1cc(Nc2nccc(Nc3cnc4c(c3)C3CCC4CC3)n2)ccc1OCCCN1CCCCC1 [Compound 209]
